# Assay results taken from the supplement of paper PMC11061612.
# Legend:
# [1] = system: PCI-30 (Head and Neck Carcinoma); assay: Bliss excess, mean over the matrix (fraction); higher = more synergy
# Procedure, shortened: (§1)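 Cell lines in DMEM/F12 or RPMI with 10% FBS were plated in 1536-well plates, held 24 hours at 37°C, 5% CO2, then given two-drug dose matrices for 72 hours (DMSO typically 0.2%). Viability was read by CellTiter-Glo 2.0 luminescence and scaled as inhibition from 0 (vehicle wells) to 1 (blank wells). Combination Emax is the second-highest inhibition in the matrix; Bliss excess is observed combination effect minus expected EA + EB − EA·EB, EA and EB being single-agent effects.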
# [2] = system: CAL-51 (Breast Carcinoma); assay: as above
# Procedure, shortened: as §1
# [3] = system: OVCAR-8 (Ovarian Carcinoma); assay: as above
# Procedure, shortened: as §1
# [4] = system: RT-112 (Bladder Carcinoma); assay: as above
# Procedure, shortened: as §1
# [5] = system: COLO-829 (Melanoma); assay: combination Emax (second highest fraction inhibited in the dose matrix, 72 h); higher = more inhibition; extreme values may be limits of the assay
# Procedure, shortened: as §1
# [6] = system: HARA (Squamous Cell Lung Carcinoma); assay: as above
# Procedure, shortened: as §1
# [7] = system: NCI-H69 (Small Cell Lung Carcinoma); assay: as above
# Procedure, shortened: as §1
# [8] = system: LU-139 (Small Cell Lung Carcinoma); assay: as above
# Procedure, shortened: as §1
# [9] = system: NCI-H28 (Mesothelioma); assay: as above
# Procedure, shortened: as §1
# [10] = system: RPMI-6666 (Non-Cancerous); assay: as above
# Procedure, shortened: as §1
# [11] = system: SW1271 (Small Cell Lung Carcinoma); assay: as above
# Procedure, shortened: as §1
# [12] = system: NB14 (Neuroblastoma); assay: as above
# Procedure, shortened: as §1
# [13] = system: HMV-II (Melanoma); assay: as above
# Procedure, shortened: as §1
# [14] = system: LB771-HNC (Head and Neck Carcinoma); assay: as above
# Procedure, shortened: as §1
# [15] = system: SK-OV-3 (Ovarian Carcinoma); assay: as above
# Procedure, shortened: as §1
# [16] = system: CAL-54 (Kidney Carcinoma); assay: as above
# Procedure, shortened: as §1
# [17] = system: KARPAS-231 (B-Cell Non-Hodgkin's Lymphoma); assay: as above
# Procedure, shortened: as §1
# [18] = system: HCC-15 (Squamous Cell Lung Carcinoma); assay: as above
# Procedure, shortened: as §1
# [19] = system: CAPAN-1 (Pancreatic Carcinoma); assay: as above
# Procedure, shortened: as §1
# [20] = system: MHH-PREB-1 (B-Cell Non-Hodgkin's Lymphoma); assay: as above
# Procedure, shortened: as §1
# 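For Bliss excess, mean over the matrix in this document: after 72 h of two-drug dosing.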
SMILES,Bliss excess [1],Bliss excess [2],Bliss excess [3],Bliss excess [4],combination Emax [5],combination Emax [6],combination Emax [7],combination Emax [8],combination Emax [9],combination Emax [10],combination Emax [11],combination Emax [12],combination Emax [13],combination Emax [14],combination Emax [15],combination Emax [16],combination Emax [17],combination Emax [18],combination Emax [19],combination Emax [20]
"CN(CCO)CC[C@H](CSc1ccccc1)Nc1ccc(S(=O)(=O)NC(=O)c2ccc(N3CCC([C@@H](O)c4ccccc4-c4ccc(Cl)cc4)CC3)cc2)cc1S(=O)(=O)C(F)(F)F [AZD4320] + Cc1cc2ncnn2cc1Nc1ncc2c(n1)n(C1CCOCC1)c(=O)n2C [AZD7648] (first compound max 1 µM, 7x7, partner max 10 µM)",-0.057,-0.0064,-0.049,0.0058,0.0921,0.244,0.882,0.937,0.15,0.898,0.216,0.966,0.18,0.138,0.305,0.372,1,0.936,0.161,0.119
"NC1(C(=O)N[C@@H](CCO)c2ccc(Cl)cc2)CCN(c2ncnc3[nH]ccc23)CC1 [Capivasertib] + C[C@@H]1COCCN1C2=NC(=NC(=C2)C3(CC3)[S@](=N)(=O)C)C4=C5C=CNC5=NC=C4 [AZD6738] (first compound max 10 µM, 7x7, partner max 10 µM)",-0.0582,-0.0096,-0.0485,-0.0698,0.563,0.868,0.671,0.25,0.512,0.775,0.512,0.964,0.465,0.674,0.493,0.813,0.691,0.367,0.364,0.749
"CN(C)CCCOc1ccc(-c2ccc3ncc4c(c3c2)n(C2CCOCC2)c(=O)n4C)cn1 [AZD0156] + O=C(c1cc(Cc2n[nH]c(=O)c3ccccc23)ccc1F)N1CCN(C(=O)C2CC2)CC1 [Olaparib] (first compound max 3 µM, partner max 3 µM)",-0.0129,0.051,0.0073,0.0239,0.0677,0.411,0.354,0.264,0.323,0.458,0.351,0.611,0.383,0.223,0.228,0.369,0.371,0.371,0.295,0.378
"COc1cccc(OCCCN)c1-c1cc(Nc2cnc(C#N)cn2)n[nH]1 [Prexasertib] + C[C@@H]1COCCN1C2=NC(=NC(=C2)C3(CC3)[S@](=N)(=O)C)C4=C5C=CNC5=NC=C4 [AZD6738] (first compound max 1 µM, 7x7, partner max 10 µM)",0.003,-0.0078,-0.0151,0.0275,0.335,0.943,0.616,0.598,0.592,0.955,0.719,1,0.565,0.61,0.806,0.84,0.979,0.33,0.527,0.949
"Cn1cnc2c(F)c(Nc3ccc(Br)cc3Cl)c(C(=O)NOCCO)cc21 [Selumetinib] + CCN(CCO)CCCOc1ccc2c(Nc3cc(CC(=O)Nc4cccc(F)c4)[nH]n3)ncnc2c1 [AZD2811] (first compound max 10 µM, 7x7, partner max 1 µM)",-0.0396,0.0356,0.0121,-0.0741,0.506,0.409,0.548,0.247,0.352,0.557,0.485,0.866,0.717,0.152,0.226,0.382,0.609,0.799,0.426,0.134
"Cc1cc2ncnn2cc1Nc1ncc2c(n1)n(C1CCOCC1)c(=O)n2C [AZD7648] + CN(C)CCCOc1ccc(-c2ccc3ncc4c(c3c2)n(C2CCOCC2)c(=O)n4C)cn1 [AZD0156] (first compound max 10 µM, 7x7, partner max 1 µM)",-0.0411,-0.0198,0.0245,0.0229,0.129,0.283,0.355,0.228,0.307,0.359,0.327,0.407,0.342,0.299,0.403,0.353,0.208,0.227,0.31,0.511
"CN(CCO)CC[C@H](CSc1ccccc1)Nc1ccc(S(=O)(=O)NC(=O)c2ccc(N3CCC([C@@H](O)c4ccccc4-c4ccc(Cl)cc4)CC3)cc2)cc1S(=O)(=O)C(F)(F)F [AZD4320] + C[C@@H]1COCCN1C2=NC(=NC(=C2)C3(CC3)[S@](=N)(=O)C)C4=C5C=CNC5=NC=C4 [AZD6738] (first compound max 1 µM, 7x7, partner max 10 µM)",-0.0223,-0.0316,-0.0222,0.0135,0.213,0.884,0.927,0.929,0.668,0.989,0.733,1,0.331,0.6,0.66,0.835,1,0.94,0.724,0.754
"CN(CCO)CC[C@H](CSc1ccccc1)Nc1ccc(S(=O)(=O)NC(=O)c2ccc(N3CCC([C@@H](O)c4ccccc4-c4ccc(Cl)cc4)CC3)cc2)cc1S(=O)(=O)C(F)(F)F [AZD4320] + C1CN(CCC1(C(=O)N[C@@H](CCO)C2=CC=C(C=C2)Cl)N)C3=NC=NC4=C3C=CN4 [Capivasertib] (first compound max 1 µM, 7x7, partner max 3 µM)",-0.0402,-0.0089,-0.0468,-0.039,0.118,0.298,0.892,0.912,0.159,0.916,0.158,0.947,0.169,0.259,0.369,0.338,1,0.923,0.161,0.173
